The record followed here is patent US9051290B2, “Biaryl phosphodiesterase inhibitors” (LEO PHARMA A/S, priority 2010, dated 2015).

Structures are written as SMILES.

Human recombinant PDE4 (Genbank accession no NM—006203), sequence (Q08499 1-673 isoform Q08499-2): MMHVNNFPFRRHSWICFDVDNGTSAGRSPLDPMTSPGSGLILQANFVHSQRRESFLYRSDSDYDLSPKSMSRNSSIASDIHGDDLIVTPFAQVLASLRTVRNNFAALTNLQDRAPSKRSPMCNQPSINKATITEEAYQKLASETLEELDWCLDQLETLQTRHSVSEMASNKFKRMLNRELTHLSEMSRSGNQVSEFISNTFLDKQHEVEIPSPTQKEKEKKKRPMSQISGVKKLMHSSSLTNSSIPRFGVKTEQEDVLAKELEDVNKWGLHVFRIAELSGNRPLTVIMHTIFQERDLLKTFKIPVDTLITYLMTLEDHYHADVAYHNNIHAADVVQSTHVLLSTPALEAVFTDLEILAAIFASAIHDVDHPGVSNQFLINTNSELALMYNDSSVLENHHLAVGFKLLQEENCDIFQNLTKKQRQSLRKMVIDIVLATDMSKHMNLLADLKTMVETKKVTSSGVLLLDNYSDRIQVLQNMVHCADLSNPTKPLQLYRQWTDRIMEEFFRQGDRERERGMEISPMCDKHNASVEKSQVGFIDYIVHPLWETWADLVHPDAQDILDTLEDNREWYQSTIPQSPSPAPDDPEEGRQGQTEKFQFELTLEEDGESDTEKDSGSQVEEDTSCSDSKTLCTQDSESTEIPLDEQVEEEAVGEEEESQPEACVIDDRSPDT

This test deals with Human recombinant PDE4 (Genbank accession no NM—006203) (Homo sapiens, UniProt Q08499). As to the kind of experiment: PDE4 assay (SPA, cleavage of cAMP). It is filed as biochemical. Particulars: 1 hour incubation, test compound up to 10 μM, cAMP 1×10^−5M, read-out: PDE4 IC50 range. The gist of the method:
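Human recombinant PDE4 incubated 1 hour with compound (up to 10 μM), 1×10^−5M cAMP and radiolabelled cAMP tracer. AMP product detected by SPA bead binding; IC50 taken as concentration giving 50% inhibition of substrate cleavage versus controls, reported as ranges.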
For orientation: IC50 means the concentration that inhibits the measured activity by half. With `CCCNC(=O)C(C)(C)COc1c(-c2ccc3c(c2)CCC3=O)ccc(OC)c1OC` [Compound 209, 3-[2,3-Dimethoxy-6-(1-oxo-indan-5-yl)-phenoxy]-2,2-dimethyl-N-propyl-propionamide], the IC50 was in the range of 0.1 to 0.5 µM.

Take `CCNC(=O)OCC(C)(C)COc1c(-c2ccc3c(c2)COC3=O)ccc(OC)c1OC` [Compound 210, Ethyl-carbamic acid 3-[2,3-dimethoxy-6-(1-oxo-1,3-dihydro-isobenzofuran-5-yl)-phenoxy]-2,2-dimethyl-propyl Ester]: the IC50 is below 0.1 µM.

Regarding `CCNC(=O)OCC(C)(C)COc1c(-c2cccc3c2CCC3=O)ccc(OC)c1OC` [Compound 211, Ethyl-carbamic acid 3-[2,3-dimethoxy-6-(1-oxo-indan-4-yl)-phenoxy]-2,2-dimethyl-propyl ester], the IC50 is below 0.1 µM.

For `CCNC(=O)OCC(C)(C)COc1c(-c2ccc3c(c2)CNC3=O)ccc(OC)c1OC` [Compound 212, Ethyl-carbamic acid 3-[2,3-dimethoxy-6-(1-oxo-2,3-dihydro-1H-isoindol-5-yl)-phenoxy]-2,2-dimethyl-propyl ester], the half-inhibitory concentration (IC50) is at least 0.5 µM.

Turning to `CCNC(=O)OCC1(COc2c(-c3ccc4c(c3)COC4=O)ccc(OC)c2OC)COC1` [Compound 213, Ethyl-carbamic acid 3-[2,3-dimethoxy-6-(1-oxo-1,3-dihydro-isobenzofuran-5-yl)-phenoxymethyl]-oxetan-3-ylmethyl ester], the concentration for half-maximal inhibition (IC50) was below 0.1 µM.

`CCNC(=O)OCC1(COc2c(-c3ccc4c(c3)CNC4=O)ccc(OC)c2OC)COC1` [Compound 214, Ethyl-carbamic acid 3-[2,3-dimethoxy-6-(1-oxo-2,3-dihydro-1H-isoindol-5-yl)-phenoxymethyl]-oxetan-3-ylmethyl ester]: the IC50 was at least 0.5 µM.

As for `COCC1(COc2c(-c3ccc4c(c3)COC4=O)ccc(OC)c2OC)COC1` [Compound 215, 5-[3,4-Dimethoxy-2-(3-methoxymethyl-oxetan-3-ylmethoxy)-phenyl]-3H-isobenzofuran-1-one], the IC50 is below 0.1 µM.

Regarding `COCC1(COc2c(-c3ccc4c(c3)CNC4=O)ccc(OC)c2OC)COC1` [Compound 216, 5-[3,4-Dimethoxy-2-(3-methoxymethyl-oxetan-3-ylmethoxy)-phenyl]-2,3-dihydro-isoindol-1-one], the IC50 was below 0.1 µM.

Regarding `COCC(C)(C)COc1c(-c2cccc3c2CCC3=O)ccc(OC)c1OC` [Compound 217, 4-[3,4-Dimethoxy-2-(3-methoxy-2,2-dimethyl-propoxy)-phenyl]-indan-1-one], the IC50 was below 0.1 µM.

On to `COCC(C)(C)COc1c(-c2ccc3c(c2)COC3=O)ccc(OC)c1OC` [Compound 218, 5-[3,4-Dimethoxy-2-(3-methoxy-2,2-dimethyl-propoxy)-phenyl]-3H-isobenzofuran-1-one], for which the IC50 was below 0.1 µM.

On to `COCC(C)(C)COc1c(-c2ccc3c(c2)CNC3=O)ccc(OC)c1OC` [Compound 219, 5-[3,4-Dimethoxy-2-(3-methoxy-2,2-dimethyl-propoxy)-phenyl]-2,3-dihydro-isoindol-1-one], for which the IC50 is below 0.1 µM.
